Here are results for eight compounds from US9522909B2, “Thiazolidinedione derivatives, preparation thereof and use thereof in cancer treatment” (UNIVERSITE DE LORRAINE, priority 2012, dated 2016).

Data set [1] concerns cryopreserved human hepatocytes (primary culture). The experiment in a line: Hepatocyte viability (MTT test) on suspended cryopreserved human hepatocytes. The following applies: 90 minutes incubation, relative to non treated cells. Type of data set: cell-based. The procedure:
The hepatocyte viability corresponds to the percentage of surviving suspended human hepatocytes after 90 minutes of incubation with the compounds of the invention present at a concentration of […].
Hepatocyte viability was measured for different compounds according to the invention with cryopreserved human hepatocytes (primary culture) suspended and distributed in 96-well plates with a density of 0.1×10^6 cells per well, in a […] culture medium per well (DMEM+gentamycin (50 mg/L)+insulin (4 mg/L)+dexamethasone (1 μM)) in a CO2/air (5%/95%) humidified atmosphere at 37° C. After 30 minutes for attaining equilibrium, […] of culture medium containing the tested compounds (dissolved in DMSO) or of medium only containing DMSO (final concentration of 0.1%) were added with stirring at 900 rpm.
Cytotoxicity is evaluated with an MTT (Thiazolyl Blue Tetrazolium Bromide) test. The tested compounds or the DMSO are left to incubate for 90 minutes, and then 10 μL of MTT at 10 mg/10 mL are added per well for 30 mins. Next, the plates are centrifuged for 10 minutes at 2,000 g, the MTT is removed and some DMSO is added in an amount of 100 μL per well. The plates are gently shaked and then absorbance is measured at 595 nm by means of a spectrophotometric reader of micro-plates. The hepatocyte viability measured here corresponds to the percentage of surviving hepatocytes after 90 minutes of incubation with the compounds tested at a concentration of 100 μM, relatively to non treated cells.
The same tests were conducted for a concentration of compounds at 200 μM.
The tests were conducted in two distinct campaigns. In both cases, troglitazone (K) was used as a reference molecule.

Another data set has as its system MCF7. The experiment in a line: Antiproliferative activity (MTS) on MCF7. It counts as cell-based, human. The following applies: Homo sapiens, MCF7, 72 hours; for inhibition at 10 µM: 10^-5 M, triplicate, read-out: percentage of inhibition of cell growth, MCF7; for IC50: averages of two independent values. The protocol: (§1) Antiproliferative activity was measured for different compounds according to the invention by analysis of cytoxicity at 10^−5M on diverse cancer cell lines in DMSO in triplicate. For certain molecules and certain lines, the same procedure was used for determining the IC50 values (the required concentration in μM for inhibiting by half the proliferation of the cells), by conducting cytotoxicity tests at concentrations from 0.005 μM to 100 μM in duplicate. The procedure is the following. The cells of the relevant line are sown in the suitable medium (see Table III) added with L-glutamine, with 10% (v/v) of fetal calf serum, 100 IU of penicillin, 100 μg/mL of streptomycin and 1.5 μg/mL of fungizone and maintained under 5% of CO2 at 37° C. 96-well plates are sown with the required number of cells per well (see Table III) in 200 μL of medium. 24 hours later, the chemical compounds to be investigated, dissolved in DMSO, are added and the media are maintained for 72 hours under these conditions with a set final concentration in DMSO (1%). The controls received an equal volume of DMSO. The number of viable cells is measured at 490 nm with the MTS reagent (Promega, Madison Wis.). The IC50s are calculated as the concentrations of compounds inducing 50% inhibition of cell proliferation.
(§2) Tables IV and V below indicate the percentage of inhibition of cell growth, i.e. the percentage of dead cells after treatment with a compound dose of 10^−5 M. The tests were conducted in triplicate.

For a further data set, the system named is HCT116. Description: Antiproliferative activity (MTS) on HCT116. It counts as cell-based. Particulars: Homo sapiens, HCT-116; 10^-5 M, 72 hours, triplicate; read-out: percentage of inhibition of cell growth, HCT116. The protocol: as §1, §2
The subject of another data set is MDA231. The experiment in a line: Antiproliferative activity (MTS) on MDA231. Type of data set: cell-based, human. Particulars: Homo sapiens, MDA-MB-231, 72 hours; for inhibition at 10 µM: 10^-5 M, triplicate, read-out: percentage of inhibition of cell growth, MDA231; for IC50: averages of two independent values. The protocol: as §1, §2
For the next data set, the system named is MDA435. Description: Antiproliferative activity (MTS) on MDA435. It counts as cell-based. The following applies: Homo sapiens, 10^-5 M, 72 hours, triplicate, read-out: percentage of inhibition of cell growth, MDA435. The procedure:
as §1, §2

For a further data set, the system named is Mia-PaCa. Description: Antiproliferative activity (MTS) on Mia-PaCa. It counts as cell-based. The following applies: Homo sapiens, MIA PaCa-2, 72 hours; for inhibition at 10 µM: 10^-5 M, triplicate, read-out: percentage of inhibition of cell growth, Mia-PaCa; for IC50: averages of two independent values. The procedure: as §1, §2
The test system of another data set is HepG2. The experiment in a line: Antiproliferative activity (MTS) on HepG2. Type of data set: cell-based. The following applies: Homo sapiens, 72 hours; for inhibition at 10 µM: 10^-5 M, triplicate, read-out: percentage of inhibition of cell growth, HepG2; for IC50: averages of two independent values. The protocol:
as §1, §2

Another data set concerns PC3. Description: Antiproliferative activity (MTS) on PC3. It counts as cell-based. The following applies: Homo sapiens, PC-3; 10^-5 M, 72 hours, triplicate; read-out: percentage of inhibition of cell growth, PC3. The protocol: as §1, §2
A further data set relates to LNCaP. The experiment in a line: Antiproliferative activity (MTS) on LNCaP. The following applies: Homo sapiens, 72 hours; for inhibition at 10 µM: 10^-5 M, triplicate, read-out: percentage of inhibition of cell growth, LNCaP; for IC50: averages of two independent values. Type of data set: cell-based. The procedure:
as §1, §2

Structures can show the parent of a compound that is named as a salt.

A word on the inhibition: it is the relative decrease from the control value, in per cent. In general, IC50 refers to the concentration needed to halve the response being measured. Lower therefore signals higher potency. On to `Cc1c(C)c2c(c(C)c1CCCCCCNC(=O)OC(C)(C)C)CCC(C)(COc1ccc(/C=C3\SC(=O)NC3=O)cc1)O2` (racemic) [C, (±) Tert-butyl(6-{2-[4-(2,4-dioxo-thiazolidin-5-ylidenemethyl)-phenoxymethyl]-2,5,7,8-tetramethyl-chroman-6-yl}-hexyl)-carbamate], for which, in data set [1] (Table I campaign), the “Hepatocyte viability % (100 μM)” value is 85%. The “Hepatocyte viability % (200 μM)” value in data set [1] (Table I campaign) came out at 80%. For the same compound, the inhibition at 10 µM in the data set on MCF7 was determined as 24%; in the data set on HCT116, 55%; in the data set with MDA231 it was 51%; in the data set with MDA435, 39%; with Mia-PaCa it was 30%; in the data set with HepG2, 77%. Besides, the results for the inhibition at 10 µM in the data set on PC3 and in the data set on LNCaP were 26% and 68%, respectively. Further, the IC50 turned out to be 9.6 µM in the data set on MCF7; 2.1 µM with MDA231; 8.8 µM with Mia-PaCa; 2.4 µM with HepG2; 6.4 µM in the data set on LNCaP.

Turning to `O=C1S/C(=C\c2ccc(O)cc2)C(=O)N1C/C=C/c1ccccc1` [Compound A, 5-(4-hydroxy-benzylidene)-3-(3-phenyl-allyl)-thiazolidine-2,4-dione], the “Hepatocyte viability % (100 μM)” value in data set [1] (Table I campaign) is given as 89%. The “Hepatocyte viability % (200 μM)” value in data set [1] (Table I campaign) worked out at 63%. Further, the inhibition at 10 µM in the data set with MCF7 turned out to be 65%; in the data set on HCT116, 83%; in the data set with MDA231 it was 91%; with MDA435, 82%; in the data set on Mia-PaCa, 84%; with HepG2 it was 59%. Also, the inhibition at 10 µM in the data set on PC3 was 43%; in the data set on LNCaP it was 37%. Further, the IC50 in the data set with MCF7 was 5.2 µM; in the data set on MDA231, 2.2 µM; with Mia-PaCa, 4.8 µM; in the data set on HepG2 it was 10.1 µM; with LNCaP, 19.4 µM.

As to `CC1(CN2C(=O)S/C(=C\c3cc(Br)c(O)c(Br)c3)C2=O)CCCCC1` [L, reference compound], the “Hepatocyte viability % (100 μM)” value in data set [1] (Table I campaign) is given as 42%. For the same compound, in [1] (Table I campaign), the “Hepatocyte viability % (200 μM)” value is given as 30%. The inhibition at 10 µM in the data set on MCF7 amounted to 76%; with HCT116, 87%; in the data set with MDA231, 53%; with MDA435, 69%; with Mia-PaCa it was 65%; in the data set with HepG2, 74%. Also, the inhibition at 10 µM is 47% in the data set on PC3 and 81% in the data set on LNCaP. Also, the 50% inhibitory concentration (IC50) was found to be 9.3 µM in the data set on MCF7; 5.7 µM in the data set with MDA231; 8.1 µM in the data set on Mia-PaCa; 8.8 µM in the data set on HepG2; 1.8 µM in the data set with LNCaP.

`CCN(CC)c1ccc2c(-c3ccc(NC(=S)NCCCCCCc4c(C)c(C)c5c(c4C)CCC(C)(COc4ccc(/C=C6\SC(=O)NC6=O)cc4)O5)cc3C(=O)O)c3ccc(=[N+](CC)CC)cc-3oc2c1` (racemic) [Compound Q, (±) (9-{2-carboxy-4-[3-(6-{2-[4-(2,4-dioxo-thiazolidin-5-ylidenemethyl)-phenoxy-methyl]-2,5,7,8-tetramethyl-chroman-6-yl}-hexyl)-thioureido]-phenyl}-6-diethylamino-xanthen-3-ylidene)-diethyl-ammonium]: the inhibition at 10 µM in the data set on MCF7 was 59%; in the data set on HCT116, 80%; in the data set on MDA231, 71%; in the data set with MDA435, 59%; in the data set on Mia-PaCa, 70%; in the data set on HepG2, 75%. Besides, the inhibition at 10 µM with PC3 was 60%; with LNCaP, 67%.

Consider `Cc1c(C)c2c(c(C)c1O)CCC(C)(CN1C(=O)S/C(=C\c3ccc(O)cc3)C1=O)O2` (racemic) [H, (±) 5-(4-hydroxy-benzylidene)-3-(6-hydroxy-2,5,7,8-tetramethyl-chroman-2-ylmethyl)-thiazolidine-2,4-dione], for which the “Hepatocyte viability % (100 μM)” value in [1] (Table II campaign) was 110%. In addition, the “Hepatocyte viability % (200 μM)” value in data set [1] (Table II campaign) stood at 103%. Also, the inhibition at 10 µM in the data set on MCF7 is 95%; in the data set on HCT116, 95%; in the data set on MDA231, 95%; in the data set with MDA435, 87%; in the data set with Mia-PaCa it was 102%; in the data set on HepG2 it was 79%. Moreover, the figures for the inhibition at 10 µM in the data set with PC3 and in the data set with LNCaP were 64% and 51%, respectively. Also, the half-maximal inhibitory concentration (IC50) in the data set on MCF7 is 3.4 µM; in the data set with MDA231, 1.9 µM; in the data set on Mia-PaCa, 1.3 µM; with HepG2, 5.7 µM; with LNCaP, 6.1 µM.

Turning to `Cc1c(C)c2c(c(C)c1O)CCC(C)(COc1ccc(/C=C3\SC(=O)N(Cc4ccccc4)C3=O)cc1)O2` (stereo not shown) [G], in data set [1] (Table II campaign), the “Hepatocyte viability % (100 μM)” value amounted to 87% and the “Hepatocyte viability % (200 μM)” value worked out at 63%.

Consider `Cc1c(C)c2c(c(C)c1OC(=O)CCCCCCCN)CCC(C)(COc1ccc(/C=C3\SC(=O)N(C)C3=O)cc1)O2` (racemic) [Compound B, (±) 8-amino {2,5,7,8-tetramethyl-2-[4-(3-methyl-2,4-dioxo-thiazolidin-5-ylidenemethyl)-phenoxymethyl]-chroman-6-yl}octanoate trifluoroacetate], for which the inhibition at 10 µM with MCF7 was 101%; in the data set with HCT116 it was 99%; with MDA231, 101%; with MDA435 it was 100%; in the data set with Mia-PaCa, 101%; in the data set with HepG2, 92%. In addition, the inhibition at 10 µM was 98% in the data set with PC3 and 91% with LNCaP. Moreover, the IC50 came to 0.9 µM with MCF7; 0.2 µM in the data set on MDA231; 0.6 µM in the data set with Mia-PaCa; 1 µM with HepG2; 1 µM in the data set on LNCaP.

For `Cc1c(C)c2c(c(C)c1OC(=O)OC(C)(C)C)CCC(C)(COc1ccc(C=C3SC(=O)N(C)C3=O)cc1)O2` (racemic) [F, (±) tertiobutyl(2,5,7,8-tetramethyl-2-[4-(3-methyl-2,4-dioxo-thiazolidin-5-ylidenemethyl)-phenoxymethyl]-chroman-6-yl)carbonate], in data set [1] (Table II campaign), the “Hepatocyte viability % (100 μM)” value was 81% and the “Hepatocyte viability % (200 μM)” value turned out to be 66%.
